Assay results taken from patent publication US20080260896A1 (priority 2007, published 2008).
Read-outs that look alike come from different tables or passages of the source. Marks after values point to notes of the source that are not given here.

Experiments:
[1] = Gross energy of crude glycerin sample; type: physicochemical; details: test crude glycerin sample with 14.8% moisture
[2] = Crude glycerin as an energy source in swine nursery diets; type: in vivo; details: nursery pigs
Protocol: In yet another embodiment, crude glycerin was evaluated as an energy source in swine nursery diets. A total of 165 pigs (Monsanto Choice Genetics, EB x GP37; initial weight: 7.14 kg) were used to determine the effect of […] on performance of nursery pigs. Pigs were blocked by initial weight to one of five dietary treatments with seven pens per treatment and four or five pigs per pen. […] The basal diets were close to a typical corn-SBM diet with no animal fat added. […] Dietary protein, lysine (amino acid ratios), major minerals, and vitamins were equal across treatments within each phase. […] Dietary lysine levels were high enough to […] to observe energy effect. Feeding programs of Momentum grind-mix option (15-25, 25-35 and 35-50 lbs. BW) was the base program. The trial had four phases with 7, 7, 7, and 9 days, respectively. Before the pigs started the trial, the pigs were fed a common diet until the pigs weighed about 15.5 pounds. Medication choice for diets in this embodiment was Carbadox. The assumed ME value for crude glycerin was based on preliminary research data from Europe. […] Feed efficiency data was regressed against daily ME intake to estimate ME content for crude glycerin. […] The crude glycerin's energy value should be similar to or lower than corn.

[3] = Glycerin as feed ingredient for lactating dairy cattle; type: in vivo, lactating Holstein cows; details: for Estimated Net Energy for Lactation (of the entire diet): calculated from energy output in milk and body weight increase
Protocol: In another embodiment, an evaluation was conducted to assess practical energy value of using glycerin as a feed ingredient for lactating dairy cattle. […] Diets were balanced to meet energy requirements based on the control diet, be isonitrogenous, and balanced to meet or exceed requirements for all other nutrients. The basal ration contained corn silage, alfalfa haylage, hay, high-moisture corn, vitamins, and minerals, and was formulated to contain about 17% CP, 6.5% RUP, and 10.5 RDP (DM basis).

[4] = lambs
From the text: Lambs received a common receiving ration for one week prior to allotment. Lambs were blocked by weight (4 blocks) and fed in individual crates for […]. […] Initial and final weights were collected on consecutive days and an interim weight was taken on day 14. Periods were: 1) days 1 to 14, 2) days 15 to 29, and 3) cumulative (days 1 to 29).

[5] = Crude glycerin in finishing cattle diets: carcass merit; type: in vivo, Angus-cross steers; details: for Adjusted Carcass Live Wt / Backfat Depth / Choice 0 / Choice - / Dress / Hot Carcass Weight / KPH Fat / Live Weight / Marbling Score / Ribeye Area / YG 2 / YG 3 / YG 4 / Yield Grade / Carcass Value: 10% DM glycerin; for Carcass Value: calculated from carcass weight, premiums and discounts
Protocol: All cattle were adapted on a common 4-step transition prior to initiation of the evaluation. Cattle were blocked by weight (4 blocks) with four pens per treatment (9-10 head/pen). […] Individual weights were collected at 28-day intervals throughout with steers terminated on three harvest dates (days on feed 116 to 153 days) based on weight and condition. Six monthly periods and cumulative (d 1-116 and 1-153) periods were analyzed. […] Carcass value was calculated using actual carcass weight and associated premiums and discounts for quality and yield grades.

[6] = Crude glycerin as pellet binder: pellet mill current usage and pellet durability index (PDI); type: physicochemical
From the text: In this embodiment, the crude glycerin [FROM SHEET WHEN GET FROM NEIL] […] Two corn/soy diets, one with low fat and one with high fat, and two high fiber diets, one with low fat and one with high fat, were formulated to provide the four treatment groups. […] Table 1 references diet formulations tested. The “HFP” referred to in Table 1 refers to a High Fat Product available from Archer Daniels Midland Company, Decatur, Ill. […] [table]

[7] = DDGS:Soy Hulls 10:0 diet (Treatment 2)
[8] = DDGS:Soy Hulls 30:15 diet (Treatment 4)

OCC(O)CO [crude glycerin, glycerin]
Gross energy [1]: 3845 kcal/kg | daily gain ([2]; phase 4, increasing dietary crude glycerin): decreased in phase 4 in a linear and quadratic manner | Feed intake ([2]; phases 2, 3, 4 and cumulative phases 1-2, 1-3, 1-4, increasing dietary crude glycerin): linearly increased | daily gain ([2]; up to 12% crude glycerin): did not affect daily gain | Body Weight change ([3]; 5% glycerin fed (DM basis)): 89.6^ab lbs. | Body condition score change ([3]; 5% glycerin fed (DM basis)): 0.1 | Feed intake ([3]; 5% glycerin fed (DM basis)): 53.9 lb/day | Milk production ([3]; 5% glycerin fed (DM basis)): 81.2 lb/day | Milk urea Nitrogen ([3]; 5% glycerin fed (DM basis)): 10.9^b mg/dl | Somatic Cell Count ([3]; 5% glycerin fed (DM basis)): 490 1000 cells/ml | Estimated Net Energy for Lactation (of the entire diet) ([3]; 5% glycerin fed (DM basis)): 1.55 mcal/kg | Body Weight change ([3]; 10% glycerin fed (DM basis)): 109.3^b lbs. | Body condition score change ([3]; 10% glycerin fed (DM basis)): 0.1 | Feed intake ([3]; 10% glycerin fed (DM basis)): 54.1 lb/day | Milk production ([3]; 10% glycerin fed (DM basis)): 82.1 lb/day | Milk urea Nitrogen ([3]; 10% glycerin fed (DM basis)): 10.7^b mg/dl | Somatic Cell Count ([3]; 10% glycerin fed (DM basis)): 137 1000 cells/ml | Estimated Net Energy for Lactation (of the entire diet) ([3]; 10% glycerin fed (DM basis)): 1.57 mcal/kg | Body Weight change ([3]; 15% glycerin fed (DM basis)): 113.5^b lbs. | Body condition score change ([3]; 15% glycerin fed (DM basis)): 0.1 | Feed intake ([3]; 15% glycerin fed (DM basis)): 53.0 lb/day | Milk production ([3]; 15% glycerin fed (DM basis)): 80.0 lb/day | Milk urea Nitrogen ([3]; 15% glycerin fed (DM basis)): 10.2^b mg/dl | Somatic Cell Count ([3]; 15% glycerin fed (DM basis)): 144 1000 cells/ml | Estimated Net Energy for Lactation (of the entire diet) ([3]; 15% glycerin fed (DM basis)): 1.58 mcal/kg | Final weight ([4]; 0 to 20% crude glycerin): not significantly different | morbidity and mortality, treatment effects ([4]; 0 to 20% crude glycerin): treatment effects were not different | cumulative DMI ([4]; 5% crude glycerin): 1.26 kg/day | cumulative DMI ([4]; 10% crude glycerin): 1.21 kg/day | cumulative DMI ([4]; 15% crude glycerin): 1.27 kg/day | cumulative DMI ([4]; 20% crude glycerin): 1.20 kg/day | Cumulative ADG ([4]; days 1 to 29, 5% crude glycerin): 0.40 kg/day | Cumulative ADG ([4]; days 1 to 29, 10% crude glycerin): 0.36 kg/day | Cumulative ADG ([4]; days 1 to 29, 15% crude glycerin): 0.39 kg/day | Cumulative ADG ([4]; days 1 to 29, 20% crude glycerin): 0.36 kg/day | palatability ([4]; levels of up to 20% dry matter (DM) inclusion): not a concern | Adjusted Carcass Live Wt [5, 7]: 567.9^a kg | Backfat Depth [5, 7]: 1.40 cm | Choice 0 [5, 7]: 66.7% | Choice - [5, 7]: 94.4% | Dress [5, 7]: 61.59% | Hot Carcass Weight [5, 7]: 357.7^a kg | KPH Fat [5, 7]: 1.90% | Live Weight [5, 7]: 581.0^a kg | Marbling Score [5, 7]: 623.1 | Ribeye Area [5, 7]: 85.49 sq cm | YG 2 [5, 7]: 44.4% | YG 3 [5, 7]: 55.6% | YG 4 [5, 7]: 0.0% | Yield Grade [5, 7]: 3.01 | Carcass Value [5, 7]: 1038.6^a | Adjusted Carcass Live Wt [5, 8]: 551.4^ab kg | Backfat Depth [5, 8]: 1.48 cm | Choice 0 [5, 8]: 65.0% | Choice - [5, 8]: 95.0% | Dress [5, 8]: 61.65% | Hot Carcass Weight [5, 8]: 347.4^ab kg | KPH Fat [5, 8]: 1.87% | Live Weight [5, 8]: 563.3^ab kg | Marbling Score [5, 8]: 630.1 | Ribeye Area [5, 8]: 84.86 sq cm | YG 2 [5, 8]: 45.0% | YG 3 [5, 8]: 55.0% | YG 4 [5, 8]: 0.0% | Yield Grade [5, 8]: 3.07 | Carcass Value [5, 8]: 1008.5^ab | Adjusted Carcass Live Wt ([5]; main effect over both diets): 559.6 kg | Backfat Depth ([5]; main effect over both diets): 1.44 cm | Choice 0 ([5]; main effect over both diets): 65.8% | Choice - ([5]; main effect over both diets): 94.7% | Dress ([5]; main effect over both diets): 61.62% | Hot Carcass Weight ([5]; main effect over both diets): 352.6 kg | KPH Fat ([5]; main effect over both diets): 1.88% | Live Weight ([5]; main effect over both diets): 572.2 kg | Marbling Score ([5]; main effect over both diets): 626.6 | Ribeye Area ([5]; main effect over both diets): 85.18 sq cm | YG 2 ([5]; main effect over both diets): 44.7% | YG 3 ([5]; main effect over both diets): 55.3% | YG 4 ([5]; main effect over both diets): 0.0% | Yield Grade ([5]; main effect over both diets): 3.04 | Carcass Value ([5]; main effect over both diets): 1023.5 | final and hot carcass weight, ribeye area, carcass value versus control ([5]; steers fed 10% crude glycerin): tended (P<0.10) to have greater final and hot carcass weight, ribeye area, and resulting carcass value | PDI ([6]; Corn/Soy High Fat diet, crude glycerin 2.5%): 54 | PDI ([6]; Corn/Soy High Fat diet, crude glycerin 5.0%): 66 | PDI ([6]; Corn/Soy Low Fat diet, crude glycerin 2.5%): 89 | PDI ([6]; Corn/Soy Low Fat diet, crude glycerin 5.0%): 93 | PDI ([6]; High Fiber High Fat diet, crude glycerin 2.5%): 89 | PDI ([6]; High Fiber High Fat diet, crude glycerin 5.0%): 91 | PDI ([6]; High Fiber Low Fat diet, crude glycerin 2.5%): 98 | PDI ([6]; High Fiber Low Fat diet, crude glycerin 5.0%): 98
